ChEMBL document CHEMBL3244131, “Synthesis of cephalosporin-4-aldehydes” (1977)

Columns and labels:
Type in all cases: functional
Escherichia coli = experiment: Antimicrobial activity against Escherichia coli ATCC 25922-1 by threefold dilution agar inclusion method
Streptococcus pyogenes = experiment: Antimicrobial activity against Streptococcus pyogenes ATCC 8668 by threefold dilution agar inclusion method
Staphylococcus aureus = experiment: Antimicrobial activity against Staphylococcus aureus ATCC 6538P by threefold dilution agar inclusion method
Klebsiella pneumoniae = experiment: Antimicrobial activity against Klebsiella pneumoniae ATCC 10031-2 by threefold dilution agar inclusion method
Proteus vulgaris = experiment: Antimicrobial activity against Proteus vulgaris ATCC 9484 by threefold dilution agar inclusion method

Measured: MIC

CC(=O)OCC1=C(C=O)N2C(=O)[C@@H](NC(=O)Cc3cccs3)[C@H]2SC1
30 µg/mL: Streptococcus pyogenes | Staphylococcus aureus
> 100 µg/mL: all other assays above

CC(=O)OCC1=C(C2OCCO2)N2C(=O)[C@@H](NC(=O)Cc3cccs3)[C@H]2SC1
> 100 µg/mL: all assays above

CC(=O)OCC1=C(/C=N/O)N2C(=O)[C@@H](NC(=O)Cc3cccs3)[C@H]2SC1
> 100 µg/mL: all assays above

CO/N=C/C1=C(COC(C)=O)CS[C@@H]2[C@H](NC(=O)Cc3cccs3)C(=O)N12
> 100 µg/mL: all assays above

CC(=O)OCC1=C(/C=N/NC(N)=O)N2C(=O)[C@@H](NC(=O)Cc3cccs3)[C@H]2SC1
> 100 µg/mL: all assays above

CC(=O)OCC1=C(/C=N/OCC(=O)O)N2C(=O)[C@@H](NC(=O)Cc3cccs3)[C@H]2SC1
> 100 µg/mL: all assays above

CC(=O)OCC1=C(/C=C/C(=O)[O-])N2C(=O)[C@@H](NC(=O)Cc3cccs3)[C@H]2SC1.[Na+]
> 100 µg/mL: all assays above

CC(=O)OCC1=C(C(=O)O)N2C(=O)[C@@H](NC(=O)Cc3cccs3)[C@H]2SC1 [CEPHALOTHIN]
30 µg/mL: Escherichia coli
0.3 µg/mL: Staphylococcus aureus
> 100 µg/mL: Proteus vulgaris
1 µg/mL: Klebsiella pneumoniae
< 0.1 µg/mL: Streptococcus pyogenes
